The results in this text go back to PubChem BioAssay AID651974 (The Scripps Research Institute Molecular Screening Center, 2013).

Calls of active or inactive are those of the source. No rule for the calls is given here.

A short description of this experiment: compounds lowering VP16-driven luciferase output – cell-based, luminescence, dose response, counter-screen for LRH-1 inverse agonist project, late-stage follow-up (AID 651974). As to conditions: HEK293 cells transfected with Gal4-VP16 and pGL4.31 luciferase reporter. On the technique in general: A counterscreen serves to expose hits that act by an unwanted route or on another target.
On to `Cc1nn(CC(=O)Nc2ccc3c(c2)OCCO3)c(C)c1[N+](=O)[O-]`, for which the IC50 (commonly the concentration needed to halve the response being measured) is > 35.9 µM (inactive).
In the case of `CC(=O)c1ccc(OC(C)C(=O)OCC(=O)NCCc2ccccc2)cc1` (centres undefined) it was > 35.9 µM (inactive); in that of `CCCc1cc(=O)oc2c(C)c(OCC(=O)NC3CC(C)(C)NC(C)(C)C3)ccc12`, > 35.9 µM (inactive).
On to `Cc1ccc(NC(=O)CSc2nc3[nH]c(=O)cc(O)c3s2)c(Br)c1`, for which the IC50 was > 35.9 µM (inactive).
Then `O=C(COC(=O)c1ccc(Br)cc1)Nc1ccccc1Br`, with > 35.9 µM (inactive).
On to `COCCn1c(C)cc(/C=C(\C#N)C(=O)OCC(=O)Nc2ccc(S(N)(=O)=O)cc2)c1C`, for which the IC50 was > 35.9 µM (inactive).
Turning to `COc1ccc(CCNC(=O)CSc2nc3[nH]c(=O)cc(O)c3s2)cc1`, the IC50 was > 35.9 µM (inactive).
On to `O=C(Nc1ccc(Br)cn1)c1ccc([N+](=O)[O-])o1`, for which the IC50 was > 35.9 µM (inactive).
In the case of `CCCc1cc(=O)oc2cc(C)cc(OCC(=O)NC3CC3)c12`, the IC50 was > 35.9 µM (inactive).
For the molecule `O=C(Nc1nc2c(Cl)cccc2s1)c1ccc([N+](=O)[O-])o1`, the IC50 is > 35.9 µM (inactive).
Then `Cc1cc(=O)oc2c(C)c(OCC(=O)NC3CC(C)(C)NC(C)(C)C3)ccc12`, with > 35.9 µM (inactive); and `Cc1cc(Br)ccc1NC(=O)CSc1nnc(CN2CCOCC2)n1C`, with > 35.9 µM (inactive).
Then `Cc1cc(Br)ccc1NC(=O)CN1C(=O)C2CC=CCC2C1=O` (centres undefined), with > 35.9 µM (inactive); and `O=C(COC(=O)c1ccc(=O)n(Cc2ccccc2)n1)Nc1ccc2c(c1)OCCO2`, with > 35.9 µM (inactive).
